Data reported in patent US11179363B2, “Non-steroidal selective glucocorticoid receptor agonistic modulators (SEGRAMs) and uses thereof” (ASSOCIATION POUR LA RECHERCHE À L'IGBMC (ARI), priority 2017, dated 2021).

Assays:
GR = target: T1, GR (Homo sapiens, UniProt P04150); conditions: cited from earlier work
T1 sequence (P04150 1-777): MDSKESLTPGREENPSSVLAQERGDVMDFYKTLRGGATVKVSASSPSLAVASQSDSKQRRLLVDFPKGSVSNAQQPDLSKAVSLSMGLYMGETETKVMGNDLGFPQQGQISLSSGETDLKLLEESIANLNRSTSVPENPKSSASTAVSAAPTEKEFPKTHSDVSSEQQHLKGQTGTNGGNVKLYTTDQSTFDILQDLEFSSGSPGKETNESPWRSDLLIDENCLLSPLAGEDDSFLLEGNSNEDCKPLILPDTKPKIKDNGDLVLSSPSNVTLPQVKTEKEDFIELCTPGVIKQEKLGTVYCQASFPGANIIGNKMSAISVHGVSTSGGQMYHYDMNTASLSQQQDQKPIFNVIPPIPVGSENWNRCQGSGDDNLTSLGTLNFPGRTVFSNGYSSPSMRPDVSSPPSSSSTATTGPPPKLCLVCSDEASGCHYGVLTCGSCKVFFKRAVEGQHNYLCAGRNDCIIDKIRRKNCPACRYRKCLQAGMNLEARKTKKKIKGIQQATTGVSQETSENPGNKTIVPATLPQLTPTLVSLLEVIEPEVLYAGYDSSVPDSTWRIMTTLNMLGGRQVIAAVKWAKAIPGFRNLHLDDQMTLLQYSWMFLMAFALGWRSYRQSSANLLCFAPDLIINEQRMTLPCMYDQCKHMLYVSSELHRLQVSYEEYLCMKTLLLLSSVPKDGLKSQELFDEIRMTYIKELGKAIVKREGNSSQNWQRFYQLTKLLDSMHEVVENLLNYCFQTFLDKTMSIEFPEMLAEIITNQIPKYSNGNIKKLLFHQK

[1] = target: T2, glucocorticoid receptor (GR) (Mus musculus, UniProt P06537); assay: In vivo transcriptional analysis (q-RT-PCR) of the three GR functions in mouse ears; set-up: species or system Balb/C mice; conditions: topical 18 hours
T2 construct: RNA transcripts were then extracted from mouse ears; from tissue; host or cells: ear skin of Balb/C mice (in vivo topical treatment)
T2 sequence (P06537 1-792): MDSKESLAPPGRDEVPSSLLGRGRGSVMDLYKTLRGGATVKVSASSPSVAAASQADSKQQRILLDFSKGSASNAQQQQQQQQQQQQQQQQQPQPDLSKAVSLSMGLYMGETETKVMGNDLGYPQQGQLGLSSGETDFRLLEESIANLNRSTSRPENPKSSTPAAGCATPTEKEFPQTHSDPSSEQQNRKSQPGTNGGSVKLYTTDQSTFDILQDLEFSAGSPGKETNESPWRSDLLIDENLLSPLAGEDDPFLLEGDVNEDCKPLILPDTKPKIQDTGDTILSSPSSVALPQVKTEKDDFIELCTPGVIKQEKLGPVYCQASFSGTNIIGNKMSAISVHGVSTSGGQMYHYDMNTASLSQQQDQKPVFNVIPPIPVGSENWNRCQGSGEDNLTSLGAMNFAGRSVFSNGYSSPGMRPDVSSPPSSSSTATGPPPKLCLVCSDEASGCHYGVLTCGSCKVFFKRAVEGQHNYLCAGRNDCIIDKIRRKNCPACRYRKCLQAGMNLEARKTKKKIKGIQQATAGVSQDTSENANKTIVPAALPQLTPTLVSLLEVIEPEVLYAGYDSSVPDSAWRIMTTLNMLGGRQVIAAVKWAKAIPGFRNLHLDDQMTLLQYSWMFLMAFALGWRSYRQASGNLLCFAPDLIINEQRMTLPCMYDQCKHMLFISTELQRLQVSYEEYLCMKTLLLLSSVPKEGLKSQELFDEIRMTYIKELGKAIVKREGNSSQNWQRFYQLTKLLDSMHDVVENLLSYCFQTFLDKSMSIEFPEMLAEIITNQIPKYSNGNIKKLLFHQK
Experimental: RNA transcripts were then extracted from mouse ears and the transcripts of 4 genes were analyzed by q-RT-PCR: • (i) the directly GR-transactivated gene of the mTOR inhibitor REDD1, • (ii) the GR-directly transrepressed gene of keratin 5 (K5) and • (iii) the GR-indirectly “tethered” transrepressed genes of interleukin-1β (IL-1β) and interleukin-6 (IL-6), both being activated in presence of 12-O-tetradecanoylphorbol-13-acetate (TPA). Results

[2] = system: OVA-induced asthma-like allergic lung inflammation; assay: Ovalbumin (OVA)-induced asthma-like allergic lung inflammation; type: in vivo, mice; conditions: OVA model
Experimental: Glucocorticoids have been (Pearlman et al., 1997. Ann Allergy Asthma Immunol. 78(4):356-62), and are still, widely used in asthma therapy. In order to investigate the possible CpdX anti-inflammatory activity in vivo, mice were sensitized and challenged with either ovalbumin (OVA) or house dust mite (HDM) to induce an asthma-like allergic lung inflammation.
Mice were intraperitoneally sensitized with either 50 μg OVA together with alum or with alum alone on D0, D7 and D14. Mice were then subdivided into three groups, and on D19, D20 and D21, they were intranasally (i.n.) challenged with 10 μg OVA. The first and the second group received intranasally 0.5 mg/kg of body weight of Dex or CpdX respectively, while the third group served as a control.
On D22, the lung allergic inflammation was assessed for each mouse by examination of the bronchoalveolar lavage fluid (BAL). The total BAL cells, eosinophils, neutrophils, macrophages and lymphocytes were counted. RNA transcripts were extracted from lung samples and RNA transcripts of IL-1β, IL-6, IL-4, IL-5, IL-10, IL-13, Eotaxin, CCL4 and TNFα were analyzed by q-RT-PCR. Histological (with H&E staining) and immunohistochemical (with eosinophil-specific and neutrophil-specific antibodies) analyses of lung tissues were also carried out.

K5 gene relative RNA expression (GR direct transrepression) ([1]; 1 nmole/cm^2, vs Vehicle): unchanged
REDD1 gene relative RNA expression (GR direct transactivation) ([1]; 1 nmole/cm^2, vs Vehicle): unchanged
SMILES: COc1ccc(F)cc1C(C)(C)CC(O)(CNc1ccc2c(c1)COC2=O)C(F)(F)F (racemic) [CpdX, 5-[4-(5-fluoro-2-methoxyphenyl)-2-hydroxy-4-methyl-2-(trifluoromethyl)pentylamino]-isobenzofuran-1(3H)-one]
indirect tethered transrepression activity of the GR (GR): still inducing
transactivation and direct transrepression functions of the GR (GR): does not induce
GR functions induced (direct transactivation, direct transrepression, indirect tethered transrepression) ([1]; 1 nmole/cm^2): selectively exhibits an indirect tethered transrepression activity
eosinophils and neutrophils in lung (immunohistochemistry) ([2]; data not shown): similarly decreased
number of macrophages in BAL ([2]; intranasal 0.5 mg/kg, D22): unchanged
total number of BAL cells, eosinophils, neutrophils and lymphocytes ([2]; intranasal 0.5 mg/kg, D22, vs control group): significantly decreased
peribronchiolar and perivascular inflammatory cell infiltration (histology) ([2]; lung paraffin sections): strongly decreased
lung expression of IL-1β, IL-6, IL-4, IL-5, IL-10, IL-13, Eotaxin, CCL4 and TNFα ([2]; q-RT-PCR): significantly and similarly decreased
